The target in this assay is α-glucosidase. The assay is described as follows: α-glucosidase inhibition assay (no method or enzyme source described). The assay is classed as biochemical.

On to `COc1cc(OC)c2cc(C(=O)c3ccccc3)ccc2c1OC` [Nigronapthaphenyl], for which the midpoint of inhibition, the IC50, lay at 6.9 ± 0.5 µM.

For the origin of these results see paper PMC6781459, “The study of antimicrobial, anti-cancer, anti-inflammatory and α-glucosidase inhibitory activities of Nigronapthaphenyl, isolated from an extract of Nigrospora sphaerica” (Mycology, 2019).
